Measured values from US10106532B2, “Inhibitors of beta-hydroxylase for treatment of cancer” (MIDWESTERN UNIVERSITY, priority 2012, dated 2018).

Tested on: FOCUS cells
Assay: directional motility, Boyden chamber-type culture inserts
Format: cell-based, human
Details: 5 μM pretreatment for 24 hours, migration 30 min
Method: The β-hydroxylase activity is required for ASPH to mediate its effects on cell motility. Directional motility was measured using Boyden chamber-type culture inserts equipped with porous membranes. FOCUS cells were pretreated with 5 μM of MO-1-1100 and MO-1-500 β-hydroxylase inhibitor for 24 hours, and then placed into the upper chamber. Migration was allowed to proceed for 30 min. ATPLite was used to quantify viable cell density. The cells in the upper well and upper surface of membrane reflects the number of non-migrating cells, luminescence measured at the bottom surface of the membrane reflects the number of migrating and non-adherent cells and luminescence measured in the bottom well was reflect migrating and non-adherent cells. […] Cell invasiveness was assessed by invasion assay using matrigel coated membrane, in which cells were allowed to proceed for 6 hours; those found adhered on the bottom surface of membrane were regarded as invading cells.

For `NC1=C(OS(=O)(=O)Cc2ccccc2)C(=O)C(c2ccc(Cl)cc2)O1` (racemic) [MO-1-1100], the “cell migration / motility” value was “significantly inhibited”, the “migrating and adherent cells” value was “significantly reduced” and the “population of non-adherent cells” value was “unchanged”. The total migrated cells was “reduced”.
